From patent US12551525B2, “Collagen peptide-based medicament compositions and devices and methods of production and use thereof” (SUSTAIN HOLDINGS, LLC, priority 2017, dated 2026)

Key:
[1] = system: corneal epithelium in wounded mouse eyes; assay: In vivo healing of mouse corneal epithelium (corneal wound model, fluorescein staining); set-up: species or system mouse (C57BL/6); conditions: 25 nM (about 3 mg/kg) in aqueous PBS, applied after 1.5 mm epithelial wound; within 16 hours post-treatment; compared to PBS and EGF controls
Experimental: The FIG. 1s a series of photomicrographs depicting the healing of a wound in the cornea of mouse eye, at time 0 and 16 hours post-wounding, upon treatment with certain compositions of the present invention. Wounds were introduced into the corneas of mice, and the mice treated immediately after wounding with vehicle (PBS), with 100 ng/ml of epidermal growth factor (EGF), or with 25 nM (about 3 mg/kg) of a (Pro-Pro-Gly)7 CMP of the invention (SEQ ID NO:1) (“Cmpd 3”), or of a (Hyp-Pro-Gly)7-SubP CMP-TC of the invention (SEQ ID NO:390) (“Cmpd 10”).
To examine the possible therapeutic effects of CMPs and CMP-TC conjugates of the invention, studies were designed to test certain CMPs and CMP-TC conjugates in an in vivo setting—the healing of the corneal epithelium in wounded mouse eyes. […] Wound size at various time points over 48 hours was examined by fluorescein staining (see Carlson et al., id.), and documented via fluorescent photomicrography, and quantified using Image J software (see Rush, J. S. et al., Investig. Ophthalmol. Visual Sci. 57 (14): 5864-5871 (2016); Rush, J. S. et al., Investig. Ophthalmol. Visual Sci. 55 (8): 4691-4699 (2014)). […]

[2] = triple helix of the peptide chains; Sakakibara et al. 1973; cited from earlier work

Substance | wound healing in mouse cornea and corneal stroma (reduction in diameter and intensity of fluorescein fluorescence) [1] | melting temperature of a triple helix [2] [°C]
(Hyp-Pro-Gly)7-SubP [Cmpd 10] | significant acceleration of wound healing | –
(Pro-Pro-Gly)7 [Cmpd 3] | significant acceleration of wound healing | –
(ProHypGly)10 | – | 58
(ProProGly)10 | – | 24
